Results published in the supplement of paper PMC10307832.

What was measured:
Experiment in all cases: relative viability (nuclei count vs DMSO), 5 days (fraction); higher = more cells survive
LCLC-97TM1 = tested on: LCLC-97TM1
Method in brief: (§1)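 Relative viability divides the nuclei count in treated wells by that in vehicle wells. Lung cancer cell lines were seeded in 1536-well plates, dosed by pin tool the next day, and fixed and stained after 5 days in one step with final 0.05% Triton X-100, 1% formaldehyde and 1 ug/ml Hoechst. Dosing was a single drug or a fixed anchor-drug dose plus five library-drug doses (not always all listed) in √10 steps, and values are medians of duplicate plates imaged at 4×.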

NCI-H23 = tested on: NCI-H23
Method in brief: as §1

NCI-H441 = tested on: NCI-H441
Method in brief: as §1

LU99A = tested on: LU99A
Method in brief: as §1

NCI-H322M = tested on: NCI-H322M
Method in brief: as §1

NCI-H460 = tested on: NCI-H460
Method in brief: as §1

LOU-NH91 = tested on: LOU-NH91
Method in brief: as §1

NCI-H2126 = tested on: NCI-H2126
Method in brief: as §1

NCI-H1915 = tested on: NCI-H1915
Method in brief: as §1

PC-3 [JPC-3] = tested on: PC-3 [JPC-3]
Method in brief: as §1

NCI-H1755 = tested on: NCI-H1755
Method in brief: as §1

BEN = tested on: BEN
Method in brief: as §1

HARA = tested on: HARA
Method in brief: as §1

NCI-H1395 = tested on: NCI-H1395
Method in brief: as §1

NCI-H2170 = tested on: NCI-H2170
Method in brief: as §1

NCI-H1944 = tested on: NCI-H1944
Method in brief: as §1

NCI-H650 = tested on: NCI-H650
Method in brief: as §1

A-427 = tested on: A-427
Method in brief: as §1

SK-LU-1 = tested on: SK-LU-1
Method in brief: as §1

NCI-H1793 = tested on: NCI-H1793
Method in brief: as §1

NCI-H2023 = tested on: NCI-H2023
Method in brief: as §1

NCI-H1666 = tested on: NCI-H1666
Method in brief: as §1

LXF-289 = tested on: LXF-289
Method in brief: as §1

Q: Which relative viability (LCLC-97TM1; first compound 0.08 µM) does the source give for `Cc1cnc(-c2cnc(NCCNc3ccc(C#N)cn3)nc2-c2ccc(Cl)cc2Cl)[nH]1` + Cc1cc(Nc2cc(N3CCN(C)CC3)nc(Sc3ccc(NC(=O)C4CC4)cc3)n2)n[nH]1 [Tozasertib] (partner 0.1 µM) here?
A: 0.224

Q: And the relative viability (LCLC-97TM1; first compound 0.8 µM)?
A: 0.171

Q: What about the relative viability (LCLC-97TM1; first compound 2.53 µM) of the same compound?
A: 0.223

Q: What about the relative viability (NCI-H23; first compound 0.08 µM) of the same compound?
A: 0.383

Q: And the relative viability (NCI-H23; first compound 0.253 µM)?
A: 0.26

Q: What about the relative viability (NCI-H23; first compound 0.8 µM) of the same compound?
A: 0.298

Q: What about the relative viability (NCI-H23; first compound 2.53 µM) of the same compound?
A: 0.259

Q: What about the relative viability (NCI-H441; first compound 0.08 µM) of the same compound?
A: 0.775

Q: And the relative viability (NCI-H441; first compound 0.253 µM)?
A: 0.654

Q: And the relative viability (NCI-H441; first compound 0.8 µM)?
A: 0.602

Q: What about the relative viability (NCI-H441; first compound 2.53 µM) of the same compound?
A: 0.405

Q: What about the relative viability (LU99A; first compound 0.08 µM) of the same compound?
A: 0.257

Q: And the relative viability (LU99A; first compound 0.253 µM)?
A: 0.301

Q: What about the relative viability (LU99A; first compound 0.8 µM) of the same compound?
A: 0.256

Q: And the relative viability (LU99A; first compound 2.53 µM)?
A: 0.243

Q: What about the relative viability (NCI-H322M; first compound 0.08 µM) of the same compound?
A: 0.51

Q: And the relative viability (NCI-H322M; first compound 0.253 µM)?
A: 0.464

Q: And the relative viability (NCI-H322M; first compound 0.8 µM)?
A: 0.438

Q: And the relative viability (NCI-H322M; first compound 2.53 µM)?
A: 0.466

Q: What about the relative viability (NCI-H460; first compound 0.08 µM) of the same compound?
A: 0.48

Q: And the relative viability (NCI-H460; first compound 0.253 µM)?
A: 0.152

Q: What about the relative viability (NCI-H460; first compound 0.8 µM) of the same compound?
A: 0.101

Q: What about the relative viability (NCI-H460; first compound 2.53 µM) of the same compound?
A: 0.137

Q: And the relative viability (LOU-NH91; first compound 0.08 µM)?
A: 0.648

Q: What about the relative viability (LOU-NH91; first compound 0.253 µM) of the same compound?
A: 0.605

Q: What about the relative viability (LOU-NH91; first compound 0.8 µM) of the same compound?
A: 0.656

Q: What about the relative viability (LOU-NH91; first compound 2.53 µM) of the same compound?
A: 0.633

Q: And the relative viability (NCI-H2126; first compound 0.08 µM)?
A: 1.02

Q: And the relative viability (NCI-H2126; first compound 0.253 µM)?
A: 0.802

Q: What about the relative viability (NCI-H2126; first compound 0.8 µM) of the same compound?
A: 0.844

Q: And the relative viability (NCI-H2126; first compound 2.53 µM)?
A: 0.837

Q: And the relative viability (NCI-H1915; first compound 0.08 µM)?
A: 0.404

Q: And the relative viability (NCI-H1915; first compound 0.253 µM)?
A: 0.322

Q: What about the relative viability (NCI-H1915; first compound 0.8 µM) of the same compound?
A: 0.342

Q: What about the relative viability (NCI-H1915; first compound 2.53 µM) of the same compound?
A: 0.374

Q: What about the relative viability (PC-3 [JPC-3]; first compound 0.08 µM) of the same compound?
A: 0.872

Q: And the relative viability (PC-3 [JPC-3]; first compound 0.253 µM)?
A: 0.849

Q: And the relative viability (PC-3 [JPC-3]; first compound 0.8 µM)?
A: 0.819

Q: What about the relative viability (PC-3 [JPC-3]; first compound 2.53 µM) of the same compound?
A: 0.719

Q: What about the relative viability (NCI-H1755; first compound 0.08 µM) of the same compound?
A: 0.585

Q: What about the relative viability (NCI-H1755; first compound 0.253 µM) of the same compound?
A: 0.521

Q: What about the relative viability (NCI-H1755; first compound 0.8 µM) of the same compound?
A: 0.595

Q: And the relative viability (NCI-H1755; first compound 2.53 µM)?
A: 0.539

Q: And the relative viability (BEN; first compound 0.08 µM)?
A: 0.517

Q: What about the relative viability (BEN; first compound 0.253 µM) of the same compound?
A: 0.609

Q: What about the relative viability (BEN; first compound 0.8 µM) of the same compound?
A: 0.476

Q: And the relative viability (BEN; first compound 2.53 µM)?
A: 0.52

Q: And the relative viability (HARA; first compound 0.08 µM)?
A: 0.116

Q: And the relative viability (HARA; first compound 0.253 µM)?
A: 0.113

Q: And the relative viability (HARA; first compound 0.8 µM)?
A: 0.116

Q: What about the relative viability (HARA; first compound 2.53 µM) of the same compound?
A: 0.1

Q: What about the relative viability (NCI-H1395; first compound 0.08 µM) of the same compound?
A: 0.778

Q: And the relative viability (NCI-H1395; first compound 0.253 µM)?
A: 0.856

Q: And the relative viability (NCI-H1395; first compound 0.8 µM)?
A: 0.872

Q: What about the relative viability (NCI-H1395; first compound 2.53 µM) of the same compound?
A: 0.756

Q: And the relative viability (NCI-H2170; first compound 0.08 µM)?
A: 0.73

Q: And the relative viability (NCI-H2170; first compound 0.253 µM)?
A: 0.566

Q: And the relative viability (NCI-H2170; first compound 0.8 µM)?
A: 0.713

Q: And the relative viability (NCI-H2170; first compound 2.53 µM)?
A: 0.699

Q: And the relative viability (NCI-H1944; first compound 0.08 µM)?
A: 0.253

Q: What about the relative viability (NCI-H1944; first compound 0.8 µM) of the same compound?
A: 0.254

Q: And the relative viability (NCI-H1944; first compound 2.53 µM)?
A: 0.252

Q: What about the relative viability (NCI-H650; first compound 0.08 µM) of the same compound?
A: 0.726

Q: And the relative viability (NCI-H650; first compound 0.253 µM)?
A: 0.746

Q: And the relative viability (NCI-H650; first compound 0.8 µM)?
A: 0.675

Q: What about the relative viability (NCI-H650; first compound 2.53 µM) of the same compound?
A: 0.734

Q: And the relative viability (A-427; first compound 0.08 µM)?
A: 0.232

Q: What about the relative viability (A-427; first compound 0.253 µM) of the same compound?
A: 0.194

Q: What about the relative viability (A-427; first compound 0.8 µM) of the same compound?
A: 0.235

Q: What about the relative viability (A-427; first compound 2.53 µM) of the same compound?
A: 0.186

Q: What about the relative viability (SK-LU-1; first compound 0.08 µM) of the same compound?
A: 0.314

Q: What about the relative viability (SK-LU-1; first compound 0.253 µM) of the same compound?
A: 0.348

Q: What about the relative viability (SK-LU-1; first compound 0.8 µM) of the same compound?
A: 0.426

Q: And the relative viability (SK-LU-1; first compound 2.53 µM)?
A: 0.535

Q: And the relative viability (NCI-H1793; first compound 0.08 µM)?
A: 0.347

Q: What about the relative viability (NCI-H1793; first compound 0.253 µM) of the same compound?
A: 0.276

Q: And the relative viability (NCI-H1793; first compound 0.8 µM)?
A: 0.257

Q: What about the relative viability (NCI-H1793; first compound 2.53 µM) of the same compound?
A: 0.182

Q: And the relative viability (NCI-H2023; first compound 0.08 µM)?
A: 0.353

Q: And the relative viability (NCI-H2023; first compound 0.253 µM)?
A: 0.362

Q: And the relative viability (NCI-H2023; first compound 0.8 µM)?
A: 0.325

Q: What about the relative viability (NCI-H2023; first compound 2.53 µM) of the same compound?
A: 0.181

Q: And the relative viability (NCI-H1666; first compound 0.08 µM)?
A: 0.63

Q: And the relative viability (NCI-H1666; first compound 0.253 µM)?
A: 0.593

Q: What about the relative viability (NCI-H1666; first compound 0.8 µM) of the same compound?
A: 0.623

Q: What about the relative viability (NCI-H1666; first compound 2.53 µM) of the same compound?
A: 0.626

Q: What about the relative viability (LXF-289; first compound 0.08 µM) of the same compound?
A: 0.223

Q: What about the relative viability (LXF-289; first compound 0.253 µM) of the same compound?
A: 0.155

Q: What about the relative viability (LXF-289; first compound 0.8 µM) of the same compound?
A: 0.18

Q: What about the relative viability (LXF-289; first compound 2.53 µM) of the same compound?
A: 0.161
